From publication doi:10.64898/2026.09.14.751502v1 (bioRxiv, 2026)

Target: RBP4 (Homo sapiens, UniProt P02753)
Conditions: read-out: RBP4 – SPA IC50

Row | SMILES | IC50 [nM]
1 | Cc1cc(-c2nnn[nH]2)nc(N2C[C@H]3C[C@@H](c4ccccc4C(F)(F)F)C[C@H]3C2)n1 [BPN-15585] | 7.5
2 | O=C(c1nc2ncccn2n1)N1C[C@H]2C[C@@H](c3ccccc3OC(F)(F)F)C[C@H]2C1 [compound 93] | 41
